Measured values as given in PMC12156041, “Design, Synthesis and Antiplasmodial Activities of a Library of Fluorine-Based 3-Benzylmenadiones” (Molecules, 2025).
Read-outs that look alike come from different tables or passages of the source.

Experiments:
[1] = system: P. falciparum NF54 strain; assay: P. falciparum NF54 [3H]hypoxanthine incorporation assay, 72 h, 0.5% Albumax; format: cell-based; conditions: Plasmodium falciparum
[2] = system: rat myoblast cell line (L6 cells); format: cell-based
From the text: Considering the potency of plasmodione and the observed main metabolite 6-hydroxy–plasmodione eliminated in the urine of PD-treated mice, our primary goal was to introduce a fluorine atom at C-6 of the menadione core to block the process of drug metabolism from occurring in the host’s liver. In this aim, we prioritized the preparation of a library of 6-fluoro-3-benzylmenadiones by investigating the replacement of the trifluoromethyl group by diverse EWG and EDG groups in various loci of the aryl ring. For SAR, all compounds were tested for the inhibition of parasite growth in RBCs infected with a P. falciparum chloroquine-sensitive strain, NF54. The parasites were cultured in vitro according to known conditions. […] The cytotoxicity of the active compounds was assessed against a rat myoblast cell line (L6 cells).
Cell proliferation was assessed with resazurin, and the generally cytotoxic agent podophyllotoxin served as the positive control, as previously reported by the STPH authors M. R. and P. M. in their recently published article.

[3] = system: P. falciparum NF54 strain; conditions: cited from earlier work
[4] = system: rat myoblast cell line (L6 cells); conditions: cited from earlier work
[5] = NF54, 72 h, P. falciparum NF54, 72 h, read-out: IC50
[6] = NF54, as stated in text, read-out: IC50 against P. falciparum NF54
[7] = NF54, read-out: IC50 against P. falciparum NF54

CC1=C(Cc2cccc(C#N)c2)C(=O)c2ccccc2C1=O [B-b-30]
IC50 [1, 5]: 190 nM
Tox/L6 [2]: 72.6 µM

CC1=C(Cc2ccc3c(c2)OC(F)(F)O3)C(=O)c2ccccc2C1=O [A-b-24]
IC50 [1, 5]: 77 nM
IC50 [1, 6]: < 100 nM

CC1=C(Cc2ccc3scnc3c2)C(=O)c2ccccc2C1=O [C-b-40]
IC50 [1, 5]: 235 nM
Tox/L6 [2]: 50.29 µM

CC1=C(Cc2ccc(Cl)cc2Cl)C(=O)c2ccccc2C1=O [A-b-14]
IC50 [1, 5]: 67 nM
IC50 [1, 6]: < 100 nM

CC1=C(Cc2ccc(Cl)cc2Cl)C(=O)c2cc(F)ccc2C1=O [A-a-14]
IC50 [1, 5]: 137 nM

CC1=C(Cc2cccc(C#N)c2)C(=O)c2cc(F)ccc2C1=O [B-a-30]
IC50 [1, 5]: 326 nM
Tox/L6 [2]: 33.3 µM

COc1ccc(CC2=C(C)C(=O)c3ccc(F)cc3C2=O)cc1OC [A-a-19]
IC50 [1, 5]: 171 nM
Tox/L6 [2]: 5.6 µM

CC1=C(Cc2cccc(F)c2)C(=O)c2ccccc2C1=O [B-b-5]
IC50 [1, 5]: 89 nM
IC50 [1, 6]: < 100 nM
Tox/L6 [2]: 71.0 µM

COc1ccc(CC2=C(C)C(=O)c3ccccc3C2=O)cc1OC [A-b-19]
IC50 ([3]; grey line ref 13): 142 nM
Tox/L6 ([4]; grey line ref 13): 5.6 µM

CC1=C(CC2CCCCC2)C(=O)c2cc(F)ccc2C1=O [A-a-29]
IC50 [1, 5]: 718 nM
Tox/L6 [2]: 177.8 µM

CC1=C(Cc2ccc([N+](=O)[O-])cc2)C(=O)c2cc(F)ccc2C1=O [A-a-12]
IC50 [1, 5]: 177 nM
Tox/L6 [2]: 307.0 µM

CC1=C(Cc2ccc(OC(F)(F)F)cc2)C(=O)c2cc(F)ccc2C1=O [A-a-3]
IC50 [1, 5]: 330 nM
Tox/L6 [2]: 138.8 µM

COc1ccc(OC)c(CC2=C(C)C(=O)c3ccc(F)cc3C2=O)c1 [A-a-26]
IC50 [1, 5]: 291 nM
Tox/L6 [2]: 91.7 µM

CC1=C(Cc2ccc(F)c(I)c2)C(=O)c2cc(F)ccc2C1=O [B-a-33]
IC50 [1, 5]: 376 nM

CC1=C(Cc2ccc(I)cc2)C(=O)c2cc(F)ccc2C1=O [A-a-13]
IC50 [1, 5]: 198 nM
Tox/L6 [2]: 40.9 µM

CC1=C(Cc2ccc3c(c2)OC(C)(C)O3)C(=O)c2cc(F)ccc2C1=O [A-a-23]
IC50 [1, 5]: 338 nM

CC1=C(Cc2ccc3c(c2)OCCO3)C(=O)c2cc(F)ccc2C1=O [A-a-22]
IC50 [1, 5]: 311 nM

CC1=C(Cc2ccc3c(c2)OC(F)(F)O3)C(=O)c2cc(F)ccc2C1=O [A-a-24]
IC50 [1, 5]: 206 nM

CC1=C(Cc2ccc(F)c(C(F)(F)F)c2)C(=O)c2cc(F)ccc2C1=O [A-a-9]
IC50 [1, 5]: 149 nM

CC1=C(Cc2ccc(Br)cc2C(F)(F)F)C(=O)c2cc(F)ccc2C1=O [B-a-34]
IC50 [1, 5]: 169 nM

CC1=C(Cc2ccccc2)C(=O)c2ccccc2C1=O [B-b-31]
IC50 ([3]; grey line ref 9): 1700 nM

CC1=C(Cc2ccc(C#N)cc2)C(=O)c2cc(F)ccc2C1=O [A-a-10]
IC50 [1, 5]: 231 nM
Tox/L6 [2]: 95 µM

COc1ccccc1CC1=C(C)C(=O)c2ccc(F)cc2C1=O [A-a-18]
IC50 [1, 5]: 572 nM
Tox/L6 [2]: 189.3 µM

CC1=C(Cc2ccc(C(F)(F)F)c(Br)c2)C(=O)c2ccccc2C1=O [A-b-8]
IC50 [1, 5]: 81 nM
IC50 [1, 6]: < 100 nM

CC1=C(Cc2ccc(Cl)cc2C(F)(F)F)C(=O)c2cc(F)ccc2C1=O [A-a-15]
IC50 [1, 5]: 103 nM

CC1=C(Cc2ccccc2C(F)(F)F)C(=O)c2cc(F)ccc2C1=O [A-a-2]
IC50 [1, 5]: 138 nM
Tox/L6 [2]: 53.4 µM

COc1cc(CC2=C(C)C(=O)c3ccc(F)cc3C2=O)cc(OC)c1OC [A-a-27]
IC50 [1, 5]: 265 nM
Tox/L6 [2]: 72.4 µM

CC1=C(Cc2ccccc2C#N)C(=O)c2cc(F)ccc2C1=O [A-a-11]
IC50 [1, 5]: 264 nM
Tox/L6 [2]: 327.0 µM

CC1=C(Cc2ccco2)C(=O)c2ccccc2C1=O [A-b-43]
IC50 ([3]; grey line ref 8): 501 nM
Tox/L6 ([4]; grey line ref 8): 4.2 µM

COc1ccc(CC2=C(C)C(=O)c3ccc(F)cc3C2=O)c(OC)c1OC [A-a-25]
IC50 [1, 5]: 340 nM
Tox/L6 [2]: 215.5 µM

CC1=C(Cc2cccc(C(F)(F)F)c2)C(=O)c2cc(F)ccc2C1=O [A-a-1]
IC50 [1, 5]: 82 nM
Tox/L6 [2]: 12.5 µM

CC1=C(Cc2cccs2)C(=O)c2ccccc2C1=O [A-b-28]
IC50 [1, 5]: 115 nM
Tox/L6 [2]: 5.2 µM

CC1=C(Cc2ccc(S(F)(F)(F)(F)F)cc2)C(=O)c2ccccc2C1=O [C-b-46, 4′-SF5-substituted 3-benzylmenadione]
IC50 [1, 5]: 48 nM
Tox/L6 [2]: 35.1 µM

CC1=C(Cc2cccc(F)c2)C(=O)c2cc(F)ccc2C1=O [A-a-5]
IC50 [1, 5]: 246 nM
Tox/L6 [2]: 6.6 µM

CC1=C(Cc2ccc3c(c2)OC(C)(C)O3)C(=O)c2ccccc2C1=O [A-b-23]
IC50 [1, 5]: 152 nM

CC1=C(Cc2ccc(C(F)(F)F)c(F)c2)C(=O)c2cc(F)ccc2C1=O [A-a-7]
IC50 [1, 5]: 735 nM
Tox/L6 [2]: 85.5 µM

COc1cccc(CC2=C(C)C(=O)c3ccc(F)cc3C2=O)c1 [A-a-17]
IC50 [1, 5]: 361 nM
Tox/L6 [2]: 165.6 µM

CC1=C(Cc2ccco2)C(=O)c2cc(F)ccc2C1=O [C-a-43]
IC50 [1, 5]: 947 nM
Tox/L6 [2]: 3.8 µM

CC1=C(Cc2ccc3scnc3c2)C(=O)c2cc(F)ccc2C1=O [C-a-40]
IC50 [1, 5]: 2060 nM

CC1=C(Cc2ccccc2F)C(=O)c2ccccc2C1=O [A-b-6]
IC50 [1, 5]: 453 nM

CC1=C(Cc2ccccc2F)C(=O)c2cc(F)ccc2C1=O [A-a-6]
IC50 [1, 5]: 119 nM
Tox/L6 [2]: 7.6 µM

CC1=C(Cc2ccc3ncsc3c2)C(=O)c2ccccc2C1=O [C-b-41]
IC50 [1, 5]: 370 nM
Tox/L6 [2]: 49.81 µM

CC1=C(CC2CCCCC2)C(=O)c2ccccc2C1=O [A-b-29]
IC50 [1, 5]: 913 nM
Tox/L6 [2]: 229.9 µM

CC1=C(Cc2ccc(F)c(I)c2)C(=O)c2ccccc2C1=O [B-b-33]
IC50 [1, 5]: 136 nM

COc1ccc(CC2=C(C)C(=O)c3ccc(F)cc3C2=O)cc1 [A-a-16]
IC50 [1, 5]: 1120 nM
Tox/L6 [2]: 195.9 µM

CC1=C(Cc2ccc3c(c2)OCO3)C(=O)c2ccccc2C1=O [A-b-21]
IC50 [1, 5]: 200 nM
Tox/L6 [2]: 97.9 µM

CC1=C(Cc2ccc(C(F)(F)F)c(F)c2)C(=O)c2ccccc2C1=O [A-b-7]
IC50 [1, 5]: 2960 nM
Tox/L6 [2]: 49.2 µM

COc1ccc(CC2=C(C)C(=O)c3ccc(F)cc3C2=O)c(OC)c1 [A-a-20]
IC50 [1, 5]: 316 nM
Tox/L6 [2]: 106.6 µM

CC1=C(Cc2ccc(F)cc2)C(=O)c2ccccc2C1=O [A-b-4]
IC50 [1, 7]: < 100 nM
IC50 ([3]; grey line ref 13): 29 nM

CC1=C(Cc2ccc(F)cc2)C(=O)c2cc(F)ccc2C1=O [A-a-4]
IC50 [1, 5]: 302 nM
Tox/L6 [2]: 174.5 µM

CC1=C(Cc2ccccc2C#N)C(=O)c2ccccc2C1=O [A-b-11]
IC50 [1, 5]: 312 nM
Tox/L6 [2]: 186.2 µM

CC1=C(Cc2ccc3ncsc3c2)C(=O)c2cc(F)ccc2C1=O [C-a-41]
IC50 [1, 5]: 2530 nM

CC1=C(Cc2ccc3c(c2)OCCO3)C(=O)c2ccccc2C1=O [A-b-22]
IC50 [1, 5]: 280 nM

CC1=C(Cc2ccc(Br)cc2C(F)(F)F)C(=O)c2ccccc2C1=O [B-b-34]
IC50 [1, 5]: 78 nM

CC1=C(Cc2ccc3c(c2)OCO3)C(=O)c2cc(F)ccc2C1=O [A-a-21]
IC50 [1, 5]: 70 nM
IC50 [1, 6]: < 100 nM
Tox/L6 [2]: 165.6 µM

COc1cc(CC2=C(C)C(=O)c3ccc(F)cc3C2=O)cc(OC)c1 [B-a-35]
IC50 [1, 5]: 711 nM
Tox/L6 [2]: 293.0 µM

CC1=C(Cc2ccccc2)C(=O)c2cc(F)ccc2C1=O [B-a-31]
IC50 [1, 5]: 300 nM
Tox/L6 [2]: 174.5 µM

CC1=C(Cc2cccs2)C(=O)c2cc(F)ccc2C1=O [A-a-28]
IC50 [1, 5]: 474 nM
Tox/L6 [2]: 5.8 µM

CC1=C(Cc2ccc(C(F)(F)F)c(Br)c2)C(=O)c2cc(F)ccc2C1=O [A-a-8]
IC50 [1, 5]: 167 nM

CC1=C(Cc2ccc([N+](=O)[O-])c(F)c2)C(=O)c2cc(F)ccc2C1=O [B-a-32]
IC50 [1, 5]: 705 nM
Tox/L6 [2]: 107.4 µM

CC1=C(Cc2ccc([N+](=O)[O-])cc2)C(=O)c2ccccc2C1=O [A-b-12]
IC50 [1, 7]: > 200 nM
IC50 ([3]; grey line ref 8): 201 nM

CC1=C(Cc2ccc(Cl)cc2C(F)(F)F)C(=O)c2ccccc2C1=O [A-b-15]
IC50 [1, 5]: 80 nM
IC50 [1, 6]: < 100 nM
